Data from PMC9482650, “Quantitative fragmentomics allow affinity mapping of interactomes” (Nature Communications, 2022).
Read-outs that look alike come from different tables or passages of the source. Numbered stars: 1 amine (or outer) side, 2 acyl side, 3 side chain; on linkers, the order of the positions; unused ones are H or OH. Ends that are not written are not given here. Peptide text beside a SMILES is read from it. * marks the point of attachment. X1 = O=C(CCCC[C@@H]1SC[C@@H]2NC(=O)N[C@@H]21)NCCCOCCOCCOCCCN*; Suc = O=C(CCC(=O)[*:2])[*:1]

Assays:
SCRIB_1 PDZ = SCRIB_1 PDZ (Homo sapiens, UniProt Q14160); test: Holdup assay; type: binding
SCRIB2 PDZ = target: T1, SCRIB2 PDZ (Homo sapiens, UniProt Q14160); test: Holdup assay; type: binding
T1 sequence (Q14160 862-950 limits assumed): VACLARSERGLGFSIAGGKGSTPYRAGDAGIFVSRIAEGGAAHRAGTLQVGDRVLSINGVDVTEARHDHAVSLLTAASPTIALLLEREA

DLG1_2 PDZ = DLG1_2 PDZ (Homo sapiens, UniProt Q12959); test: Holdup assay; type: binding
SNX27 PDZ = SNX27 PDZ (Homo sapiens, UniProt Q96L92); test: Holdup assay; type: binding
TX1BP3 PDZ = target: T2, TX1BP3 PDZ (Homo sapiens, UniProt O14907); test: Holdup assay; type: binding
T2 sequence (O14907 15-112 limits assumed): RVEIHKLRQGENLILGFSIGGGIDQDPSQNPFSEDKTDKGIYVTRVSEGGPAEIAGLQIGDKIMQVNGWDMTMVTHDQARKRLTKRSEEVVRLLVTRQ

DLG1_1 PDZ = DLG1_1 PDZ (Homo sapiens, UniProt Q12959); test: Holdup assay; type: binding
SYNJ2BP PDZ = target: T3, SYNJ2BP PDZ (Homo sapiens, UniProt P57105); test: Holdup assay; type: binding
T3 sequence (P57105 13-100 limits assumed): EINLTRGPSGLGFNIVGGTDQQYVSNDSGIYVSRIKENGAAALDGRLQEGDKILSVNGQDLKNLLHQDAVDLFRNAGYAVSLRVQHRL

HeLa cell extract preys = test: PDZ-AP-MS, biotinylated MBP-PDZ baits; type: binding, human; conditions: for Ratio: fold enrichment of prey; for Difference: log2 enrichment of prey
Method: (§1) For PDZ-AP-MS experiments, PDZ domains were cloned as His6-AviTag-MBP-PDZ constructs. For co-expression with BirA, E. coli BL21(DE3) cells were co-transformed with His6-AviTag-MBP, or His6-AviTag-MBP-PDZ-coding and PET21a-BirA (Addgene #20857) plasmids. Simultaneously to IPTG induction, 50 µM biotin was added to the media. After cell harvesting, the lysis buffer was also supplemented with 50 µM biotin. Otherwise, expression and double affinity purification was identical as previously described in details.
(§2) For PBM-AP-MS experiments, 30 μl streptavidin resin was mixed with biotin or peptide at 50–60 μM concentration in 6–6.5 resin volume for 60 min to achieve resin saturation. For PDZ-AP-MS experiments, 30 μl streptavidin resin was mixed with biotinylated MBP or MBP-PDZ at 40-50 μM concentration in >1000× resin volume for 60 min to achieve resin saturation. After saturation, resins were washed a single time (ten resin volume, holdup buffer), and were depleted with biotin (1 mM biotin, 5–10 resin volume, 10 min). Finally, resins were washed two times. 0.5 ml 2 mg/ml cell lysate was added to the dry resin (1 mg total input) and were incubated at 4 °C for 2 h. Then, the beads were washed three times with 10 resin volume buffer containing: 50 mM TRIS pH 8.5, 150 mM NaCl, 1% TritonX-100, 10× complete EDTA-free protease inhibitor cocktail, 2 mM EDTA, 1 mM TCEP. Then, the beads were washed two times with ten resin volume buffer containing: 50 mM TRIS pH 8.5, 150 mM NaCl, 1 mM TCEP. Finally, captured protein was eluted from the resin in two steps and the eluted fractions were pooled. For each elution the beads were incubated for 30 min with three resin volume buffer containing: 20 mM TRIS pH8.5, 100 mM NaCl, 500 μM TCEP, 8 M Urea. Between each step, the beads were separated by mild centrifugation and the supernatant was removed by gentle pipetting.
(§3) The samples were precipitated with TCA 20% overnight at 4 °C and centrifuged at 14,000 rpm for 10 min at 4 °C. The protein pellets were washed twice with 1 mL cold acetone and air dried. The protein extracts were solubilized in urea 8 M, reduced with 5 mM TCEP for 30 min, and alkylated with 10 mM iodoacetamide for 30 min in the dark. Double digestion was performed at 37 °C with 500 ng endoproteinase Lys-C for 4 h, followed by fourfold dilution and an overnight digestion with 500 ng trypsin. Peptide mixtures were then desalted on C18 spin-column and dried on Speed-Vacuum.
(§4) Samples were analyzed using an Ultimate 3000 nano-RSLC (Thermo Scientific, San Jose California) coupled in line with a LTQ-Orbitrap ELITE mass spectrometer via a nano-electrospray ionization source (Thermo Scientific, San Jose California). Peptide mixtures were injected in 0.1% TFA on a C18 Acclaim PepMap100 trap-column (75 µm ID × 2 cm, 3 µm, 100 Å, Thermo Fisher Scientific) for 3 min at 5 µL/min with 2% ACN, 0.1% FA in H2O and then separated on a C18 Accucore nano-column (75 µm ID × 50 cm, 2.6 µm, 150 Å, Thermo Fisher Scientific) at 220 nl/min and 38 °C with a 90 min linear gradient from 5% to 30% buffer B (A: 0.1% FA in H2O/B: 99% ACN, 0.1% FA in H2O), regeneration at 5% B. The mass spectrometer was operated in positive ionization mode, in data-dependent mode with survey scans from m/z 350–1500 acquired in the Orbitrap at a resolution of 120,000 at m/z 400. The 20 most intense peaks from survey scans were selected for further fragmentation in the Linear Ion Trap with an isolation window of 2.0 Da and were fragmented by CID with normalized collision energy of 35%. (TOP20CID method) Unassigned and single charged states were excluded from fragmentation. The Ion Target Value for the survey scans (in the Orbitrap) and the MS2 mode (in the Linear Ion Trap) were set to 1E6 and 5E3 respectively and the maximum injection time was set to 100 ms for both scan modes. Dynamic exclusion was set to 20 s after one repeat count with mass width at ±10 ppm. […]

[1] = system: Jurkat cell extract preys; test: PDZ-AP-MS, biotinylated MBP-PDZ baits; type: binding, human; conditions: for Difference log2: enrichment of prey
Method: as §1, §2, §3, §4

HaCat cell extract preys = test: PDZ-AP-MS, biotinylated MBP-PDZ baits; type: binding, human; conditions: for Difference log2: enrichment of prey
Method: as §1, §2, §3, §4

DLG4_3 PDZ = DLG4_3 PDZ (Homo sapiens, UniProt P78352); test: Competitive fluorescence polarization (FP) assay; type: binding; conditions: read-out: pKd FP (converted)
MAGI2_2 PDZ = MAGI2_2 PDZ (Homo sapiens, UniProt Q86UL8); test: Competitive fluorescence polarization (FP) assay; type: binding; conditions: read-out: pKd FP (converted)
[2] = PBM motif of the named protein vs SCRIB_1 PDZ, read-out: pKd values – domain-motif, SCRIB_1 (converted)
[3] = PBM motif of the named protein vs SCRIB_2 PDZ, read-out: pKd values – domain-motif, SCRIB_2 (converted)
[4] = PBM motif of the named protein vs DLG1_2 PDZ, read-out: pKd values – domain-motif, DLG1_2 (converted)
[5] = PBM motif of the named protein vs TX1BP3 PDZ, read-out: pKd values – domain-motif, TX1BP3 (converted)
[6] = holdup affinity of the PBM peptide of the named protein, sheet PBMcomplexome, lower sub-table, 3.5 appears to be the floor for no detectable binding, read-out: affinity of PBM to DLG1_2 (pKd) (converted)
[7] = holdup affinity of the PBM peptide of the named protein, sheet PBMcomplexome, lower sub-table
[8] = holdup affinity of the PBM peptide of the named protein, sheet PBMcomplexome, lower sub-table, 3.5 appears to be the floor for no detectable binding, read-out: affinity of PBM to TX1BP3 (pKd) (converted)
[9] = bait SCRIB_1 PDZ, fold change of prey
[10] = bait SCRIB_2 PDZ, fold change of prey
[11] = PBM motif of the named protein vs DLG1_1 PDZ, read-out: pKd values – domain-motif, DLG1_1 (converted)

SCRIB_1 PDZ, sequence (Q14160 728-815 limits assumed): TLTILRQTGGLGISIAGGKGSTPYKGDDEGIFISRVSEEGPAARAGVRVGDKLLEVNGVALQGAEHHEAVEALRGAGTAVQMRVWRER
DLG4_3 PDZ, sequence (P78352 313-393 limits assumed): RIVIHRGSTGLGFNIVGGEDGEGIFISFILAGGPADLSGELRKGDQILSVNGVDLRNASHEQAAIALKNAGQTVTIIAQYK
MAGI2_2 PDZ, sequence (Q86UL8 426-510 limits assumed): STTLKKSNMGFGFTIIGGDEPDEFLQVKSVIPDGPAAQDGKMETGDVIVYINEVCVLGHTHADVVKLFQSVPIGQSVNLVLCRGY

In the case of KKYVDAETSL [SLC4A7], the Kd (SCRIB_1 PDZ; [2]) is reported as 2.88 µM, the Kd (SCRIB2 PDZ; [3]) is reported as 170 µM and the Kd (DLG1_2 PDZ; [4]) is reported as 275 µM. It also gave a Kd (SNX27 PDZ) of 1.95 µM and a Kd (TX1BP3 PDZ; [5]) of 151 µM.
In the case of IQREDQETAV [DGKZ], the Kd (SCRIB_1 PDZ; holdup affinity of the PBM peptide of the named protein, sheet PBMcomplexome, lower sub-table, 3.5 appears to be the floor for no detectable binding, read-out: affinity of PBM to SCRIB_1 (pKd) (converted)) is reported as 19.5 µM, the Kd (SCRIB2 PDZ; holdup affinity of the PBM peptide of the named protein, sheet PBMcomplexome, lower sub-table, 3.5 appears to be the floor for no detectable binding, read-out: affinity of PBM to SCRIB_2 (pKd) (converted)) is reported as 13.8 µM and the Kd (DLG1_2 PDZ; [6]) is reported as 6.92 µM. The Kd (SNX27 PDZ; [7]) was 1 µM, the Kd (DLG1_1 PDZ; holdup affinity of the PBM peptide of the named protein, sheet PBMcomplexome, lower sub-table, 3.5 appears to be the floor for no detectable binding, read-out: affinity of PBM to DLG1_1 (pKd) (converted)) was 18.6 µM and the Kd (TX1BP3 PDZ; [8]) was 66.1 µM.
LSEFKAMDSI [CTNNA1] was tested, and the Kd (TX1BP3 PDZ; [5]) was 339 µM.
With EKQAKGDTEF [CACYBP] the Kd (SNX27 PDZ) was 209 µM.
GFGEERESIL [KIDINS220] showed a Kd (DLG1_2 PDZ; [6]) of 132 µM, a Kd (SNX27 PDZ; [7]) of 2.57 µM and a Kd (TX1BP3 PDZ; [8]) of 186 µM.
Work on QRQARSETLV [HPV59E6] yielded a Kd (SYNJ2BP PDZ) of 15.4 µM.
Compound PLEC has a Ratio (HeLa cell extract preys; bait TX1BP3 PDZ vs MBP control) of 24.4238 and a Difference (HeLa cell extract preys; bait TX1BP3 PDZ vs MBP control) of 4.61.
In the case of SEKHFRETEV [HTLV1 Tax1], the Kd (SYNJ2BP PDZ) is reported as 0.912 µM.
For VKPQVSESKL [ACOT8], the Kd (SCRIB_1 PDZ; [2]) was 47.9 µM, the Kd (SCRIB2 PDZ; [3]) was 302 µM and the Kd (SNX27 PDZ) was 4.57 µM.
SCRIB was tested, and the “Difference log2” value ([1]; bait SCRIB_1 PDZ vs MBP) was 8.3787, the “Ratio SCRIB_1/MBP” value [1, 9] was 332.843 and the “Difference log2” value ([1]; bait SCRIB_2 PDZ vs MBP) was 8.333. For the same compound, the “Ratio SCRIB_2/MBP” value [1, 10] was 322.542, the “Difference log2” value (HaCat cell extract preys; bait SCRIB_1 PDZ vs MBP) was 13.0145 and the “Ratio SCRIB_1/MBP” value (HaCat cell extract preys; [9]) was 8274.77. It also gave a Difference (HeLa cell extract preys; bait SCRIB_2 PDZ (biotinylated MBP-PDZ) vs MBP control) of 6.449 and a Ratio (HeLa cell extract preys; bait SCRIB_2 PDZ vs MBP control) of 87.3698.
For ATKDKKITTV [EXOC4], the Kd (SCRIB_1 PDZ; [2]) was 141 µM, the Kd (SCRIB2 PDZ; [3]) was 324 µM and the Kd (DLG1_2 PDZ; [4]) was 1.23 µM. It also gave a Kd (SNX27 PDZ) of 41.7 µM, a Kd (DLG1_1 PDZ; [11]) of 8.91 µM and a Kd (TX1BP3 PDZ; [5]) of 123 µM.
`CC(C)C[C@H](NC(=O)[C@H](CCC(N)=O)NC(=O)[C@@H](NC(=O)[C@H](CCC(=O)O)NC(=O)[C@H](CCC(=O)O)NC(=O)[C@H](CCCNC(=N)N)NC(=O)[C@H](CO)NC(=O)[C@H](CC(=O)O)NC(=O)[C@H](CCC(N)=O)NC(=O)CNC(=O)CCC(=O)NCCCOCCOCCOCCCNC(=O)CCCC[C@@H]1SC[C@@H]2NC(=O)N[C@@H]21)[C@@H](C)O)C(=O)O` [KCNT2] ({X1-Suc}-GQDSREETQL-OH) was tested, and the Kd (DLG4_3 PDZ) was 241 µM and the Kd (MAGI2_2 PDZ) was 248 µM.
With TVASEKESVM [SLC1A5] the Kd (SCRIB_1 PDZ; [2]) was 6.31 µM, the Kd (SNX27 PDZ) was 5.13 µM and the Kd (TX1BP3 PDZ; [5]) was 204 µM.
In the case of QPRTWLQSPV [RTKN], the Kd (SCRIB_1 PDZ; [2]) is reported as 204 µM, the Kd (DLG1_2 PDZ; [4]) is reported as 50.1 µM and the Kd (SNX27 PDZ) is reported as 49 µM. For the same compound, the Kd (DLG1_1 PDZ; [11]) was 182 µM and the Kd (TX1BP3 PDZ; [5]) was 0.891 µM.
With EPRS1 the “Difference log2” value (HaCat cell extract preys; bait SCRIB_2 PDZ vs MBP) was 4.198 and the “Ratio SCRIB_2/MBP” value (HaCat cell extract preys; [10]) was 18.3552.
SRPHTNETSL [MCC] gave a Kd (SCRIB_1 PDZ; [2]) of 5.5 µM, a Kd (SCRIB2 PDZ; [3]) of 52.5 µM and a Kd (DLG1_2 PDZ; [4]) of 64.6 µM. For the same compound, the Kd (SNX27 PDZ) was 1.91 µM, the Kd (DLG1_1 PDZ; [11]) was 191 µM and the Kd (TX1BP3 PDZ; [5]) was 75.9 µM.
IDNDTESTAL [ARHGAP17] showed a Kd (SCRIB_1 PDZ; [2]) of 12.3 µM, a Kd (SCRIB2 PDZ; [3]) of 245 µM and a Kd (SNX27 PDZ) of 10.7 µM.
